Active and inactive are the calls of the source. The calls are words filed in the database; no cut-off is given here. Where a SMILES comes first, the peptide text is derived from it. [ ]: non-standard residue; d: D form. dPhe(4-I) = N[C@H](Cc1ccc(I)cc1)C(=O)O
Assays:
Assay type in all cases: cell-based
[1] = molecular target: Melanocortin receptor 3 (Mus musculus) (UniProt P33033); assay: Agonist activity at mouse melanocortin-3 receptor transfected in HEK293 cells at 1 uM after 6 hrs by beta-galactosidase reporter gene assay relative to MTII-induced maximal response
Melanocortin receptor 3 (Mus musculus), sequence (P33033 whole entry): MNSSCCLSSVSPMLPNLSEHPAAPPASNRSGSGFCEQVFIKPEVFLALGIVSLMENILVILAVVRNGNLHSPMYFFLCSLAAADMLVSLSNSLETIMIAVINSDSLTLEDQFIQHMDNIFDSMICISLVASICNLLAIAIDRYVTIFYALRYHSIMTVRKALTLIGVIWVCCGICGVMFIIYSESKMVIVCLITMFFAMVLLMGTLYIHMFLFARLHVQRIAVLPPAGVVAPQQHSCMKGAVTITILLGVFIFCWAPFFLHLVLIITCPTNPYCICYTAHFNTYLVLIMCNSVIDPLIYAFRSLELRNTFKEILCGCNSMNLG

[2] = molecular target: Melanocyte-stimulating hormone receptor (Mus musculus, UniProt Q01727); assay: Agonist activity at mouse melanocortin-1 receptor transfected in HEK293 cells after 6 hrs by beta-galactosidase reporter gene assay
Melanocyte-stimulating hormone receptor, sequence (Q01727 whole entry): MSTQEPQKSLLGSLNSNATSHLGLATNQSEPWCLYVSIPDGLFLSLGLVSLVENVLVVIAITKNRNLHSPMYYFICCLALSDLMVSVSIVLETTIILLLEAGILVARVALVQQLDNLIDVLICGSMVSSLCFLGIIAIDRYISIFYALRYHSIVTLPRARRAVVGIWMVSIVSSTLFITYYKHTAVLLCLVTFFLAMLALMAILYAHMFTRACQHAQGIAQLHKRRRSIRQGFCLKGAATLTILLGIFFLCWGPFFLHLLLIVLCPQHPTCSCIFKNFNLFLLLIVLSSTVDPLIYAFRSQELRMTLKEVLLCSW

[3] = molecular target: Melanocortin receptor 4 (Mus musculus) (UniProt P56450); assay: (§1) Antagonist activity at mouse melanocortin-4 receptor transfected in HEK293 cells assessed as inhibition of MTII-induced response after 6 hrs by Schild analysis
Melanocortin receptor 4 (Mus musculus), sequence (P56450 whole entry): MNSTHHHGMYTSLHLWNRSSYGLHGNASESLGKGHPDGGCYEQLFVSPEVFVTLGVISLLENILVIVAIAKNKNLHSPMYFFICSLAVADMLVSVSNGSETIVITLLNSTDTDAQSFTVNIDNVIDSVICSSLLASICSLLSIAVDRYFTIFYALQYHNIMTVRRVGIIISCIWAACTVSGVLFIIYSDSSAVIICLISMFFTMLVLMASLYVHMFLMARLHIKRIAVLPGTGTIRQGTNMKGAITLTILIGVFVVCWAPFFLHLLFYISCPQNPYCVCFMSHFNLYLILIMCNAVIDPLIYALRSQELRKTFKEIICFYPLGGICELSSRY

[4] = molecular target: Melanocortin receptor 3 (Mus musculus) (UniProt P33033); assay: (§2) Antagonist activity at mouse melanocortin-3 receptor transfected in HEK293 cells assessed as inhibition of MTII-induced response after 6 hrs by Schild analysis
Melanocortin receptor 4 [5] = molecular target: T1, Melanocortin receptor 4 (Mus musculus, UniProt P56450); assay: as §1; settings: for Kb: read-out: pA2 (converted)
T1 sequence (P56450 whole entry): as above

Melanocortin receptor 4 [6] = molecular target: T1, Melanocortin receptor 4; assay: Agonist activity at mouse melanocortin-4 receptor transfected in HEK293 cells after 6 hrs by beta-galactosidase reporter gene assay
Melanocortin receptor 3 [7] = molecular target: T2, Melanocortin receptor 3 (Mus musculus, UniProt P33033); assay: Agonist activity at mouse melanocortin-3 receptor transfected in HEK293 cells after 6 hrs by beta-galactosidase reporter gene assay
T2 sequence (P33033 whole entry): as the sequence (P33033 whole entry) above

Melanocortin receptor 3 [8] = molecular target: T2, Melanocortin receptor 3; assay: as §2; settings: read-out: pA2 (converted)
Melanocortin receptor 5 = Melanocortin receptor 5 (Mus musculus, UniProt P41149); assay: Agonist activity at mouse melanocortin-5 receptor transfected in HEK293 cells after 6 hrs by beta-galactosidase reporter gene assay
Melanocortin receptor 5, sequence (P41149 whole entry): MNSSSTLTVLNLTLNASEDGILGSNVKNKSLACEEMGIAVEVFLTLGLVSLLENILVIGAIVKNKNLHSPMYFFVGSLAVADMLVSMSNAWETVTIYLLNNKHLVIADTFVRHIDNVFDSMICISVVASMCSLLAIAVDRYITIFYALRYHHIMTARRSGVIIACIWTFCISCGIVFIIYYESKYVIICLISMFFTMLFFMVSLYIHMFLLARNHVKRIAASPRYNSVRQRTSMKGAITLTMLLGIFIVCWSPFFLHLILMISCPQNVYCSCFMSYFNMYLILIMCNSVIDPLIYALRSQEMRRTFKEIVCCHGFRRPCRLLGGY

[9] = molecular target: Melanocortin receptor 3 (Mus musculus) (UniProt P33033); assay: Agonist activity at mouse melanocortin-3 receptor transfected in HEK293 cells at 100 uM after 6 hrs by beta-galactosidase reporter gene assay relative to MTII-induced maximal response
[10] = molecular target: Melanocortin receptor 3 (Mus musculus) (UniProt P33033); assay: Antagonist activity at mouse melanocortin-3 receptor transfected in HEK293 cells assessed as inhibition of MTII-induced response up to 10 uM after 6 hrs by Schild analysis
[11] = molecular target: Melanocortin receptor 4 (Mus musculus) (UniProt P56450); assay: Agonist activity at mouse melanocortin-4 receptor transfected in HEK293 cells at 100 uM after 6 hrs by beta-galactosidase reporter gene assay relative to MTII-induced maximal response
[12] = molecular target: Melanocortin receptor 3 (Mus musculus) (UniProt P33033); assay: Antagonist activity at mouse melanocortin-3 receptor transfected in HEK293 cells assessed as inhibition of MTII-induced response up to 100 uM after 6 hrs by Schild analysis

CCCC[C@H](NC(C)=O)C(=O)N[C@H]1CC(=O)NCCCC[C@@H](C(N)=O)NC(=O)[C@H](Cc2c[nH]c3ccccc23)NC(=O)[C@H](CCCNC(=N)N)NC(=O)[C@@H](Cc2ccc3ccccc3c2)NC(=O)[C@H](Cc2c[nH]cn2)NC1=O
Activity [1]: 54% | EC50 [2]: 0.00067 µM

CC(=O)N[C@@H](Cc1cnc[nH]1)C(=O)N[C@H](Cc1ccccc1)C(=O)N[C@@H](CCCNC(=N)N)C(=O)N[C@@H](Cc1c[nH]c2ccccc12)C(N)=O
pA2 [3]: inactive | pA2 [4]: inactive

CC(=O)N[C@@H](Cc1c[nH]c2ccccc12)C(=O)N[C@H](Cc1ccc(I)cc1)C(=O)N[C@@H](CCCNC(=N)N)C(=O)N[C@H](Cc1ccc2ccccc2c1)C(N)=O
Ki (Melanocortin receptor 4 [5]): < 0.006 µM | Kb (Melanocortin receptor 4 [5]): 0.00501 µM | EC50 (Melanocortin receptor 4 [6]): > 100 µM | EC50 (Melanocortin receptor 3 [7]): > 100 µM | Kb (Melanocortin receptor 3 [8]): 2 µM | EC50 [2]: 5.8 µM | EC50 (Melanocortin receptor 5): 19.7 µM

CC(=O)N[C@@H](Cc1c[nH]c2ccccc12)C(=O)N[C@H](Cc1ccc(I)cc1)C(=O)N[C@@H](CCCNC(=N)N)C(=O)N[C@@H](Cc1c[nH]c2ccccc12)C(N)=O (Ac-W[dPhe(4-I)]RW-NH2)
EC50 (Melanocortin receptor 4 [6]): > 100 µM | EC50 (Melanocortin receptor 3 [7]): > 100 µM | EC50 [2]: 2 µM | EC50 (Melanocortin receptor 5): 2.8 µM

CC(=O)N[C@@H](Cc1c[nH]c2ccccc12)C(=O)N[C@H](Cc1ccc(I)cc1)C(=O)N[C@@H](CCCNC(=N)N)C(=O)N1Cc2ccccc2C[C@H]1C(N)=O
Kb (Melanocortin receptor 4 [5]): 1 µM | INH [3]: 1 µM | Activity [9]: 48% | inhibition [10]: inactive | Activity [11]: 44% | EC50 [2]: 2.7 µM | EC50 (Melanocortin receptor 5): 5.3 µM

CC(=O)N[C@@H](Cc1c[nH]c2ccccc12)C(=O)N[C@H](Cc1ccc(I)cc1)C(=O)N[C@@H](CCCNC(=N)N)C(=O)N[C@@H](Cc1ccc2ccccc2c1)C(N)=O
Ki (Melanocortin receptor 4 [5]): < 0.006 µM | Kb (Melanocortin receptor 4 [5]): 0.00501 µM | EC50 (Melanocortin receptor 4 [6]): > 100 µM | EC50 (Melanocortin receptor 3 [7]): > 100 µM | Kb (Melanocortin receptor 3 [8]): 1.26 µM | EC50 [2]: 5.5 µM | EC50 (Melanocortin receptor 5): 20.3 µM

CC(=O)N[C@@H](Cc1c[nH]c2ccccc12)C(=O)N[C@H](Cc1ccc(I)cc1)C(=O)N[C@@H](CCCNC(=N)N)C(=O)N[C@@H](Cc1ccccc1)C(N)=O
Kb (Melanocortin receptor 4 [5]): 0.158 µM | Activity [9]: 66% | Activity [11]: 44% | EC50 [2]: 6.5 µM | EC50 (Melanocortin receptor 5): 1.8 µM

CC(=O)N[C@@H](Cc1c[nH]c2ccccc12)C(=O)N[C@H](Cc1ccc(I)cc1)C(=O)N[C@@H](CCCNC(=N)N)C(=O)N[C@@H](Cc1ccc(-c2ccccc2)cc1)C(N)=O
inhibition [12]: inactive | Kb (Melanocortin receptor 4 [5]): 0.501 µM | INH [3]: 0.48 µM | EC50 (Melanocortin receptor 4 [6]): > 100 µM | EC50 (Melanocortin receptor 3 [7]): > 100 µM | EC50 [2]: 20.7 µM | EC50 (Melanocortin receptor 5): 7.8 µM

CC(=O)N[C@@H](Cc1cnc[nH]1)C(=O)N[C@H](Cc1ccccc1)C(=O)N[C@@H](CCCN=C(N)N)C(=O)N[C@@H](Cc1c[nH]c2ccccc12)C(N)=O
EC50 (Melanocortin receptor 4 [6]): 0.0054 µM | EC50 (Melanocortin receptor 5): 0.0046 µM

CC(=O)N[C@@H](Cc1c[nH]c2ccccc12)C(=O)N[C@H](Cc1ccc(I)cc1)C(=O)N[C@@H](CCCNC(=N)N)C(=O)N[C@@H](Cc1csc2ccccc12)C(N)=O
inhibition [12]: inactive | Kb (Melanocortin receptor 4 [5]): 0.0794 µM | EC50 (Melanocortin receptor 4 [6]): > 100 µM | EC50 (Melanocortin receptor 3 [7]): > 100 µM | EC50 [2]: 8.3 µM | EC50 (Melanocortin receptor 5): 23.7 µM

— ChEMBL document CHEMBL3421543, “Melanocortin antagonist tetrapeptides with minimal agonist activity at the mouse melanocortin-3 receptor” (ACS Med Chem Lett, 2015)
